Measured values from patent publication US11672868B2, “Bicyclic peptide ligands specific for MT1-MMP” (priority 2014, dated 2023).
Numbered stars: 1 amine (or outer) side, 2 acyl side, 3 side chain; on linkers, the order of the positions; unused ones are H or OH. Bridge positions count the residues as written; N and C are the ends. Square brackets hold non-standard residues; d marks the D form. Peptide text beside a SMILES is read from it. * marks the point of attachment. 5FAM = O=C1OC2(c3ccc(O)cc3Oc3cc(O)ccc32)c2ccc(C(=O)*)cc21; 1Nal = N[C@@H](Cc1cccc2ccccc12)C(=O)O; TBMB = c1c(C[*:1])cc(C[*:3])cc1C[*:2]; Tle = CC(C)(C)[C@H](N)C(=O)O; βAla = NCCC(=O)O; Sar = CNCC(=O)O

Columns and labels:
Test in all cases: FP selectivity against related metalloproteinases
Format in all cases: binding
Conditions in all cases: Table 14
MMP-15 = MMP-15 (Homo sapiens, UniProt P51511)
Chain of MMP-15 (P51511 132-669): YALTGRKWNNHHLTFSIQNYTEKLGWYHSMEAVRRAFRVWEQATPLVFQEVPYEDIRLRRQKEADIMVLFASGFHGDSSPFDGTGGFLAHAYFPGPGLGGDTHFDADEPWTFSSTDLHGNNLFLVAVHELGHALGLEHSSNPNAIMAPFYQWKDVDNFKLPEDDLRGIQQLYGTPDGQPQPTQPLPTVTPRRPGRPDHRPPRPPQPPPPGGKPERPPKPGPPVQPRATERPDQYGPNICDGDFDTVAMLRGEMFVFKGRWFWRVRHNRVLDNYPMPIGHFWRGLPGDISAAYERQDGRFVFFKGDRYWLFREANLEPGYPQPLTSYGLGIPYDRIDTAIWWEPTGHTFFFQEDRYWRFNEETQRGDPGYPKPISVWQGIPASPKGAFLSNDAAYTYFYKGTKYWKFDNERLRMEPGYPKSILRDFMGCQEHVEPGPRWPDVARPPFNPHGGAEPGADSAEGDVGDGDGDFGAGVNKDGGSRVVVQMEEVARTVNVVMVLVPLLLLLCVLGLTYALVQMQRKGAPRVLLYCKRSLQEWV
Method: (§1) The N-terminally fluoresceinated derivative of 17-69-07-N241 (termed 17-69-07-N258, of the sequence: Fluorescein-(bAla)-Sar10-A-(17-69-07) D-Ala1 1Nal4 D-Ala5 tBuGly11) was tested against related human metalloproteinases.

MMP-16 = MMP-16 (Homo sapiens, UniProt P51512)
Chain of MMP-16 (P51512 120-607): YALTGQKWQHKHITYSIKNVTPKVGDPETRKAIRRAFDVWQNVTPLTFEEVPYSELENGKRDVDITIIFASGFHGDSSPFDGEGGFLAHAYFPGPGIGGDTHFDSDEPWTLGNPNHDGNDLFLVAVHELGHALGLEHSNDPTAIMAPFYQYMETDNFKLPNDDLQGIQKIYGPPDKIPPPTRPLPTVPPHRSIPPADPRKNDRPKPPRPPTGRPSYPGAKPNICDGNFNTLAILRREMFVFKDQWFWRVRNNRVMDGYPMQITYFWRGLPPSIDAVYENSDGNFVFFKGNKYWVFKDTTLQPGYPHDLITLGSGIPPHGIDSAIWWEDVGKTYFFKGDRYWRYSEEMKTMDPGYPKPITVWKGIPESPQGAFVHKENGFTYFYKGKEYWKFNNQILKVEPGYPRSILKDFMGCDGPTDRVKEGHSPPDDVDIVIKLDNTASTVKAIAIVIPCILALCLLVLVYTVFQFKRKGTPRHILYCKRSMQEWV
Method: as §1

MMP-1 = biological target: T1, MMP-1 (Homo sapiens, UniProt P03956)
T1 sequence (P03956 100-469): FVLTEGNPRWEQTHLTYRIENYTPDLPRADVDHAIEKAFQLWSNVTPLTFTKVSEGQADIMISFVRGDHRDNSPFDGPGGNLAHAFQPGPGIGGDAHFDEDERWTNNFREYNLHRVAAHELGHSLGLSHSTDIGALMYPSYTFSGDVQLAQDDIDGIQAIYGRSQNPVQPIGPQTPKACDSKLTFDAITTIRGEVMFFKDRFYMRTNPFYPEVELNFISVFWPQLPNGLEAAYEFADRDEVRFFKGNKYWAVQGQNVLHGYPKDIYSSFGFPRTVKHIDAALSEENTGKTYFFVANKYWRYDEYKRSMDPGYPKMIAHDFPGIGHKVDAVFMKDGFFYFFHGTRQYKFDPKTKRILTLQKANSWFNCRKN
Method: as §1

MMP-2 = biological target: T2, MMP-2 (Homo sapiens, UniProt P08253)
T2 sequence (P08253 110-660): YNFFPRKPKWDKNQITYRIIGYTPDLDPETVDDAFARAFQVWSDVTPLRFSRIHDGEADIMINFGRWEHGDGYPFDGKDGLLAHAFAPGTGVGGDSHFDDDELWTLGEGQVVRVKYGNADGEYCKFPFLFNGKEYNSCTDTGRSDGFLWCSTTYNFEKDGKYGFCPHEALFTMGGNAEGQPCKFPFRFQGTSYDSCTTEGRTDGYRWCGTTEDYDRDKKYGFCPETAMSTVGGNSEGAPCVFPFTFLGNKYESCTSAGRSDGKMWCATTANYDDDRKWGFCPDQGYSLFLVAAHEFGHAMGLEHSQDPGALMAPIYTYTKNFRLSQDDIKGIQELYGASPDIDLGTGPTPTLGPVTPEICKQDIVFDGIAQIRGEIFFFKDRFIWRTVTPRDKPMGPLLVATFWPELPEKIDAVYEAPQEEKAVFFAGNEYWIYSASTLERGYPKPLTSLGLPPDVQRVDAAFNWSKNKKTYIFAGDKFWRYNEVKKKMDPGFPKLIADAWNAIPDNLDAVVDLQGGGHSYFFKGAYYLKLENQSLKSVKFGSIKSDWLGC
Method: as §1

Measured: Kd

C[C@H](NC(=O)CN(C)C(=O)CN(C)C(=O)CN(C)C(=O)CN(C)C(=O)CN(C)C(=O)CN(C)C(=O)CN(C)C(=O)CN(C)C(=O)CN(C)C(=O)CN(C)C(=O)CCNC(=O)c1ccc2c(c1)C(=O)OC21c2ccc(O)cc2Oc2cc(O)ccc21)C(=O)N[C@H]1CSCc2cc3cc(c2)CSC[C@H](NC(=O)[C@@H](C)NC(=O)[C@H](Cc2cccc4ccccc24)NC(=O)[C@H](CCC(=O)O)NC(=O)[C@H](CC(N)=O)NC(=O)[C@@H](C)NC1=O)C(=O)N[C@@H](CCC(=O)O)C(=O)N[C@@H](CC(=O)O)C(=O)N[C@@H](Cc1ccccc1)C(=O)N[C@@H](Cc1ccc(O)cc1)C(=O)N[C@@H](CC(=O)O)C(=O)N[C@@H](C(C)(C)C)C(=O)N[C@H](C(N)=O)CSC3 [17-69-07-N258, Fluorescein-(bAla)-Sar10-A-(17-69-07) D-Ala1 1Nal4 D-Ala5 tBuGly11] ({5FAM-βAla}-[Sar][Sar][Sar][Sar][Sar][Sar][Sar][Sar][Sar][Sar]AC[dA]NE[1Nal][dA]CEDFYD[Tle]C-NH2; linker 12-18-25 via TBMB)
> 1000 nM: all assays above
